Patent publication US9204653B2, “5-fluoro pyrimidine derivatives” (DOW AGROSCIENCES LLC, priority 2008, dated 2015)
Like-named read-outs stand apart in the source and are kept apart here.

System: Mycosphaerella graminicola; Anamorph: Septoria tritici; Bayer Code SEPTTR
Experiment: Leaf blotch of wheat, foliar fungicide treatment, one day protectant (1DP) or three day curative (3DC)
Assay type: in vivo, Septoria tritici on wheat plants (variety Yuma)
Conditions: Zymoseptoria tritici, rating of percent disease control
[1] = 24 h, one day protectant (1DP), read-out: SETTTR 1DP 25 ppm
[2] = 24 h, one day protectant (1DP), read-out: SEPTTR 1DP 100 ppm
[3] = 72 h, three day curative (3DC), read-out: SEPTTR 3DC 25 ppm
[4] = 72 h, three day curative (3DC), read-out: SEPTTR 3DC 100 ppm

Structure (SMILES)	pest or weed control at 25 ppm [1] [%]	pest or weed control at 100 ppm [2] [%]	pest or weed control at 25 ppm [3] [%]	pest or weed control at 100 ppm [4] [%]
Nc1nc(OCCc2ccccc2Cl)ncc1F [Compound 240]	0 to 25	26 to 50	0 to 25	0 to 25
COc1ccc(COc2ncc(F)c(/N=C/N3CCOCC3)n2)cc1F [Compound 241]	76 to 100	76 to 100	76 to 100	51 to 75
Cc1ccc(COc2ncc(F)c(NNC3CCCCC3)n2)cc1 [Compound 244]	0 to 25	76 to 100	0 to 25	76 to 100
Cn1ccc(COc2ncc(F)c(NCO)n2)n1 [Compound 245]	51 to 75	76 to 100	51 to 75	76 to 100
Cc1cc(Cl)ccc1Oc1ncc(F)c(N)n1 [Compound 246]	0 to 25	0 to 25		
CN(C)/C=N/c1nc(OC(=O)C2CCCCC2)ncc1F [Compound 247]	76 to 100	76 to 100	76 to 100	76 to 100
COc1ccc(COc2ncc(F)c(NCc3ccccc3F)n2)cc1 [Compound 249]	26 to 50	76 to 100	26 to 50	51 to 75
CN(C)/C=N/c1nc(Cl)ncc1F [Compound 252]	26 to 50	26 to 50	0 to 25	0 to 25
Cc1ccc(COc2ncc(F)c(N(C)N)n2)cc1 [Compound 253]	26 to 50	76 to 100	51 to 75	76 to 100
C=C(C)COc1ncc(F)c(N)n1 [Compound 256]	0 to 25	0 to 25	0 to 25	26 to 50
CCOCNc1nc(OCc2ccc(F)cc2)ncc1F [Compound 257]	51 to 75	76 to 100	51 to 75	76 to 100
NNc1nc(OCc2ccccc2)ncc1F [Compound 258]	51 to 75	76 to 100	26 to 50	51 to 75
CC(=O)OCNc1nc(OCc2ccc(F)cc2)ncc1F [Compound 259]	51 to 75	76 to 100	76 to 100	76 to 100
CN1CCCC/C1=N\c1nc(OCc2cccc(C#N)c2)ncc1F [Compound 261]	51 to 75	76 to 100	51 to 75	76 to 100
O=C(Nc1nc(OCc2ccc(F)cc2)ncc1F)OCCl [Compound 262]	51 to 75	76 to 100	76 to 100	76 to 100
COc1ccc(S(=O)(=O)Oc2ncc(F)c(/N=C/N(C)C)n2)cc1 [Compound 264]	51 to 75	76 to 100	76 to 100	76 to 100
Fc1cccc(COc2ncc(F)c(NC(=S)Nc3ccccc3F)n2)c1 [Compound 266]	76 to 100	76 to 100	0 to 25	76 to 100
CC(C)Oc1ncc(F)c(N)n1 [Compound 267]	0 to 25	0 to 25	0 to 25	0 to 25
COc1cccc(COc2ncc(F)c(OC)n2)c1 [Compound 269]	0 to 25	0 to 25	0 to 25	0 to 25
COCCOC(=O)Nc1nc(OCc2cccc(F)c2)ncc1F [Compound 273]	51 to 75	76 to 100	76 to 100	76 to 100
CN1CCC/C1=N\c1nc(OCc2ccc(F)cc2)ncc1F [Compound 274]	76 to 100	76 to 100	76 to 100	76 to 100
Nc1nc(OCc2cscn2)ncc1F [Compound 275]	76 to 100	76 to 100	76 to 100	76 to 100
CCOC(=O)Nc1nc(OCc2cccc(OC)c2)ncc1F [Compound 276]	76 to 100	76 to 100	76 to 100	76 to 100

Structure (SMILES)	pest or weed control at 25 ppm [1] [%]	pest or weed control at 100 ppm [2] [%]	pest or weed control at 25 ppm [3] [%]	pest or weed control at 100 ppm [4] [%]
CC[Si](CC)(CC)Nc1nc(OCCCOC)ncc1F [Compound 279]	51 to 75	76 to 100	76 to 100	76 to 100
COCCOC(=O)Nc1nc(OCc2ccc(F)cc2)ncc1F [Compound 280]	76 to 100	76 to 100	76 to 100	76 to 100
Fc1cnc(OCc2ccccc2)nc1NNc1ccccc1 [Compound 282]	0 to 25	26 to 50	26 to 50	51 to 75
O=[N+]([O-])c1ccccc1NNc1nc(OCc2ccc(Cl)c(Cl)c2)ncc1F [Compound 283]	51 to 75	76 to 100	0 to 25	26 to 50
Nc1nc(OCc2ccc(O)cc2)ncc1F [Compound 284]	0 to 25	0 to 25	0 to 25	0 to 25
C/C=C(C)/C=N/Nc1nc(OCc2cccc(OC)c2)ncc1F [Compound 285]	51 to 75	76 to 100	26 to 50	26 to 50
CCc1ccccc1COc1ncc(F)c(N)n1 [Compound 286]	76 to 100	76 to 100	51 to 75	76 to 100
CCCCCNC(=S)Nc1nc(OCc2ccc(C)cc2)ncc1F [Compound 287]	76 to 100	76 to 100	76 to 100	76 to 100
Nc1nc(OCc2ccc(F)cc2F)ncc1F [Compound 289]	76 to 100	76 to 100	76 to 100	76 to 100
O=C(Nc1ccccc1F)Nc1nc(OCc2ccccc2)ncc1F [Compound 291]	0 to 25	0 to 25	0 to 25	26 to 50
CN(/C=N/c1nc(OCc2ccc(F)cc2)ncc1F)Cc1ccccc1 [Compound 292]	76 to 100	76 to 100	76 to 100	76 to 100
O=C(NNc1nc(OCc2ccccc2)ncc1F)c1ccccc1 [Compound 293]	0 to 25	0 to 25	0 to 25	0 to 25
COc1cccc(COc2ncc(F)c(NNC3CCCCC3)n2)c1 [Compound 294]	0 to 25	76 to 100	0 to 25	76 to 100
CCOC(=O)COC(=O)Nc1nc(OCc2ccc(F)cc2)ncc1F [Compound 295]	76 to 100	76 to 100	76 to 100	76 to 100
Cc1cc(Oc2ncc(F)c(N)n2)cc(C)n1 [Compound 296]	0 to 25	0 to 25	0 to 25	26 to 50
O=C(Nc1nc(OCc2ccccc2)ncc1F)OCc1ccccc1 [Compound 298]	76 to 100	76 to 100	76 to 100	76 to 100
COc1ccccc1COc1ncc(F)c(N)n1 [Compound 300]	76 to 100	76 to 100	76 to 100	76 to 100
C/C(=N\Nc1nc(OCc2ccc(C)cc2)ncc1F)c1ccc(Cl)nc1 [Compound 301]	26 to 50	26 to 50	51 to 75	76 to 100
CN(C)/C=N/c1nc(OCc2cccc(N)c2)ncc1F [Compound 303]	26 to 50	76 to 100	51 to 75	76 to 100
COc1cccc(COc2ncc(F)c(NNc3ccccc3)n2)c1 [Compound 306]	0 to 25	76 to 100	26 to 50	26 to 50
Nc1nc(OCc2cn3ccccc3n2)ncc1F [Compound 307]	76 to 100	76 to 100	76 to 100	76 to 100
Nc1nc(OCc2ccnc(Cl)c2)ncc1F [Compound 308]	76 to 100	76 to 100	76 to 100	76 to 100
COc1ccccc1COc1ncc(F)c(NC(C)=O)n1 [Compound 309]	76 to 100	76 to 100	76 to 100	76 to 100
